The record followed here is patent publication US7214689B2, “Isoquinoline compounds” (Les Laboratoires Servier, priority 2003, dated 2007).

A short description of experiment [1]: Forced swimming test. The format is in vivo. The settings on record: 40 minutes before the test. As for the experimental part:
The compounds of the invention are tested in a behavioural model, the forced swimming test.
The apparatus is a Plexiglas cylinder filled with water. The animals are tested individually for a session of 6 minutes. At the beginning of each test, the animal is placed in the centre of the cylinder. The period of immobility is recorded. Each animal is judged to be immobile when it ceases to struggle and remains immobile on the surface of the water only making movements that allow it to keep its head out of the water.
In particular, the compound of Example 9, administered at 2.5 mg/kg per os, causes the duration of immobility to be reduced from 102 seconds (control) to 57 seconds. The compound of Example 3, administered at 25 mg/kg per os, causes the duration of immobilisation to be reduced from 129 seconds (control) to 60 seconds.

The target in experiment [2] is MT1 receptor (Homo sapiens, UniProt P48039). The experiment can be described thus: Binding to melatonin receptor MT1 (2-[125I]-iodomelatonin). The settings on record: 2-[125I]-iodomelatonin radioligand, triplicate. The method, then: (§1) Study of Binding to Melatonin Receptors MT1 and MT2
(§2) The MT1 or MT2 receptor binding experiments are carried out using 2-[^125I]-iodomelatonin as reference radioligand. The radioactivity retained is determined using a liquid scintillation counter.
(§3) Competitive binding experiments are then carried out in triplicate using the various test compounds. A range of different concentrations is tested for each compound. The results enable the binding affinities (Ki) of the compounds tested to be determined.

The target of experiment [3] is T1, MT2 receptor (Homo sapiens, UniProt P49286).
T1 sequence (P49286 1-362): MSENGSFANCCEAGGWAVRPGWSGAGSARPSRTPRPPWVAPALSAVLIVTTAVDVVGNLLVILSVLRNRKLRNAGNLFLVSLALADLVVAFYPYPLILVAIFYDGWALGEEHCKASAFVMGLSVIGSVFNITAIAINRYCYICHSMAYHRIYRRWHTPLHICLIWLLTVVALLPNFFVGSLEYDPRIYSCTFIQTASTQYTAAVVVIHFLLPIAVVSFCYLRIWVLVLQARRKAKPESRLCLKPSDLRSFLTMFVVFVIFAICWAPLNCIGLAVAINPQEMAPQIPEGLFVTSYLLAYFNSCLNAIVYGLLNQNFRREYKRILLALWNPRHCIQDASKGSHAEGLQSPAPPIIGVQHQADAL
Put plainly: Binding to melatonin receptor MT2 (2-[125I]-iodomelatonin). The settings on record: 2-[125I]-iodomelatonin radioligand, triplicate. The method, then:
as §1, §2, §3

Structures can show the parent of a compound that is named as a salt.

Sequence of MT1 receptor (P48039 whole entry): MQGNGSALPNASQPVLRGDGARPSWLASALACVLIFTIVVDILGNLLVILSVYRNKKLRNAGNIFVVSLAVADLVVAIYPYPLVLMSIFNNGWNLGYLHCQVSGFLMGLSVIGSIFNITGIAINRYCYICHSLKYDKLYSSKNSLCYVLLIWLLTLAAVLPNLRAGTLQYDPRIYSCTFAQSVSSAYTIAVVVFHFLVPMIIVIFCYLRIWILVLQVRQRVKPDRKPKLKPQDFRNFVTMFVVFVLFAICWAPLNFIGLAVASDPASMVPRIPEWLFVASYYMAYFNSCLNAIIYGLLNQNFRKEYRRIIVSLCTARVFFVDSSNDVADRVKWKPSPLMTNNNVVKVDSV

The Ki is the equilibrium dissociation constant of an inhibitor or competing ligand from its target. A lower Ki goes with tighter binding. In the case of `COc1ccc2cncc(CCNC(C)=O)c2c1.Cl` [Example 9, N-[2-(6-methoxy-4-isoquinolinyl)ethyl]acetamide hydrochloride], in experiment [1] (2.5 mg/kg per os, control 102 seconds), the duration of immobility amounted to 57 s. The inhibition constant Ki in experiment [2] was 9.12 nM; in experiment [3], 2.16 nM.
Consider `CNC(=O)CCCc1cncc2ccc(OC)cc12` [Example 3, 4-(6-methoxy-4-isoquinolinyl)-N-methylbutanamide], for which the duration of immobilisation in experiment [1] (25 mg/kg per os, control 129 seconds) was found to be 60 s. The Ki in experiment [2] is 3.8 nM; in experiment [3] it was 2.6 nM.
With `CCC(=O)NCCc1cncc2ccc(OC)cc12` [Example 10, N-[2-(6methoxy-4-isoquinolinyl)ethyl]propanamide hydrochloride], the values for the Ki in experiment [2] and in experiment [3] were 4.26 nM and 1.14 nM, respectively.
